Measurements: patent US10294202B2, “Pyrrolidinones as herbicides” (FMC Corporation, priority 2013, dated 2019)
Where two headings read alike, the source gives them in different places.

Key:
corn = experiment: Test A pre-/postemergence herbicide test; assay type: in vivo, Zea mays; conditions: for Corn plant response rating (crop injury, 0 = no effect, 100 = complete kill) at 1000 g/ha: 1000 g ai/ha
Summary of the method: (§1)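 Greenhouse pot test with pre- and postemergence application of surfactant-containing solvent formulations. Postemergence plants were 2–10 cm, one- to two-leaf stage. Response scored visually after ~10 days, 0 (no effect) to 100 (complete control).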

ragweed = experiment: Test C pre-/postemergence herbicide test; assay type: in vivo, Ambrosia elatior
Summary of the method: (§2)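 Greenhouse pots; formulation = non-phytotoxic solvent mix + surfactant. PRE onto seeds in loam:sand; POST at 1–4 leaves (2–18 cm) in peat moss/vermiculite medium. Read-out: visual % control vs untreated, day 13–15.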

wheat = experiment: Test A pre-/postemergence herbicide test; assay type: in vivo, Triticum aestivum; conditions: for plant injury at 500 g/ha / plant injury at 1000 g/ha: Triticum aestivum, 240 h, read-out: Plant response rating, Wheat; for plant injury at 1000 g/ha: 1000 g ai/ha
Summary of the method: as §1

morningglory = experiment: Test C pre-/postemergence herbicide test; assay type: in vivo, Ipomoea coccinea
Summary of the method: as §2

wheat (winter wheat) = experiment: Test C pre-/postemergence herbicide test; assay type: in vivo, Triticum aestivum
Summary of the method: as §2

oat, wild = experiment: Test C pre-/postemergence herbicide test; assay type: in vivo, Avena fatua
Excerpt: Seeds of plant species selected from blackgrass (Alopecurus myosuroides), ryegrass, Italian (Italian ryegrass, Lolium multiflorum), wheat (winter wheat, Triticum aestivum), galium (catchweed bedstraw, Galium aparine), corn (Zea mays), crabgrass, large (large crabgrass, Digitaria sanguinalis), foxtail, giant (giant foxtail, Setaria faberii), johnsongrass (Sorghum halepense), lambsquarters (Chenopodium album), morningglory (Ipomoea coccinea), nutsedge, yellow (yellow nutsedge, Cyperus esculentus), pigweed (Amaranthus retroflexus), ragweed (common ragweed, Ambrosia elatior), soybean (Glycine max), barnyardgrass (Echinochloa crus-galli), oilseed rape (Brassica napus), waterhemp (common waterhemp, Amaranthus rudis), kochia (Kochia scoparia), oat, wild (wild oat, Avena fatua), surinam grass (Brachiaria decumbens), foxtail, green (green foxtail, Setaria viridis), goosegrass (Eleusine indica), bromegrass, downy (downy bromegrass, Bromus tectorum), nightshade (eastern black nightshade, Solanum ptycanthum), cocklebur (common cocklebur, Xanthium strumarium), cupgrass, woolly (woolly cupgrass, Eriochloa villosa), bermudagrass (Cynodon dactylon), sunflower, (common oilseed sunflower, Helianthus annuus), Russian thistle (Salsola kali) and velvetleaf (Abutilon theophrasti) were planted into a blend of loam soil and sand and treated preemergence with test chemicals formulated in a non-phytotoxic solvent mixture which included a surfactant. At the same time, plants selected from these crop and weed species and also barley (winter barley, Hordeum vulgare), […]), chickweed (common chickweed, Stellaria media), deadnettle (henbit deadnettle, Lamium amplexicaule), and canarygrass (littleseed canarygrass, Phalaris minor) were planted in pots containing Redi-Earth® planting medium (Scotts Company, 14111 Scottslawn Road, Marysville, Ohio 43041) comprising spaghnum peat moss, vermiculite, wetting agent and starter nutrients and treated with postemergence applications of test chemicals formulated in the same manner. Plants ranged in height from 2 to 18 cm (1- to 4-leaf stage) for postemergence treatments. Treated plants and controls were maintained in a greenhouse for 13 to 15 days, after which time all species were compared to controls and visually evaluated. Plant response ratings, summarized in Table C, are based on a scale of 0 to 100 where 0 is no effect and 100 is complete control. A dash (-) response means no test result.

pigweed = experiment: Test A pre-/postemergence herbicide test; assay type: in vivo, Amaranthus retroflexus; conditions: for pest or weed control at 500 g/ha / pest or weed control at 1000 g/ha: Amaranthus retroflexus, 240 h, read-out: Plant response rating, Pigweed; for pest or weed control at 1000 g/ha: 1000 g ai/ha
Summary of the method: as §1

[1] = Postemergence, 125 g ai/ha, 0 to 100 scale, 0 no effect, 100 complete control
[2] = Postemergence, 500 g ai/ha, 0 to 100 scale (0 no effect, 100 complete control)
[3] = Preemergence, 125 g ai/ha, visual rating on 0 to 100 scale (0 no effect, 100 complete control)
[4] = preemergence, 500 g ai/ha, 0 to 100 scale
[5] = Preemergence, 62 g ai/ha, scale 0 to 100
[6] = Preemergence, 125 g ai/ha, scale 0 to 100 (0 no effect, 100 complete control)
[7] = post-emergence, Postemergence, 500 g ai/ha, 0 to 100 scale (0 no effect, 100 complete control)
[8] = pre-emergence, preemergence, 500 g ai/ha, 0 to 100 scale
[9] = Postemergence, 31 g ai/ha, scale 0 (no effect) to 100 (complete control)
[10] = Postemergence, 62 g ai/ha, scale 0 to 100 (0 no effect, 100 complete control)
[11] = Postemergence, 125 g ai/ha, scale 0 to 100 (0 no effect, 100 complete control)
[12] = Postemergence, 250 g ai/ha, scale 0 to 100 (0 no effect, 100 complete control)
[13] = post-emergence, Postemergence, 0 to 100 scale (0 no effect, 100 complete control)
[14] = pre-emergence, Preemergence, visual rating on 0 to 100 scale (0 no effect, 100 complete control), approx. 10 days

O=C1NCC(c2ccc(Cl)c(Cl)c2)C1C(=O)Nc1ccccc1F (racemic) [Compound 14]
Plant response rating, Corn (corn; [1]): 0 | Plant response rating, Corn (corn; [2]): 0 | Corn plant response rating (corn; [3]): 0 | Plant response rating, Corn (corn; [4]): 0 | Plant response rating, Ragweed (ragweed; [5]): 0 | Plant response rating, Ragweed (ragweed; [6]): 0 | Plant response rating, Wheat (wheat; [1]): 0 | Plant response rating, Wheat (wheat; [2]): 0 | Wheat plant response rating (wheat; [3]): 0 | Plant response rating, Wheat (wheat; [4]): 0 | Plant response rating, Morningglory (morningglory; [5]): 0 | Plant response rating, Morningglory (morningglory; [6]): 0 | Plant response rating, Wheat (wheat (winter wheat); [5]): 10 | Plant response rating, Wheat (wheat (winter wheat); [6]): 10 | Plant response rating, Oat, Wild (oat, wild; [5]): 0 | Plant response rating, Oat, Wild (oat, wild; [6]): 0 | Plant response rating, Pigweed (pigweed; [1]): 0 | Plant response rating, Pigweed (pigweed; [2]): 0 | Pigweed plant response rating (pigweed; [3]): 0 | Plant response rating, Pigweed (pigweed; [4]): 20

O=C1NCCC1C(=O)N(c1ccc(F)c(F)c1)c1ccccc1F (stereo not shown) [Compound 5, N-(3,4-difluorophenyl)-N-(2-fluorophenyl)-2-oxo-3-pyrrolidinecarboxamide]
Corn plant response rating (corn; [3]): 0 | Corn plant response rating (crop injury, 0 = no effect, 100 = complete kill) at 125 g/ha (corn; Zea mays, post-emergence, 240 h, Postemergence, 125 g ai/ha, 0 to 100 scale, 0 no effect, 100 complete control): 0% | Corn plant response rating (crop injury, 0 = no effect, 100 = complete kill) at 500 g/ha (corn; Zea mays, post-emergence, 240 h, Postemergence, 500 g ai/ha, 0 to 100 scale (0 no effect, 100 complete control)): 0% | Corn plant response rating (crop injury, 0 = no effect, 100 = complete kill) at 500 g/ha (corn; Zea mays, pre-emergence, 240 h, preemergence, 500 g ai/ha, 0 to 100 scale): 0% | Plant response rating, Ragweed (ragweed; [5]): 0 | Plant response rating, Ragweed (ragweed; [6]): 0 | Wheat plant response rating (wheat; [3]): 0 | plant injury at 500 g/ha (wheat; [7]): 0% | plant injury at 500 g/ha (wheat; [8]): 0% | Plant response rating, Morningglory (morningglory; [5]): 0 | Plant response rating, Morningglory (morningglory; [6]): 0 | Plant response rating, Wheat (wheat (winter wheat); [5]): 0 | Plant response rating, Wheat (wheat (winter wheat); [6]): 5 | Plant response rating, Oat, Wild (oat, wild; [5]): 0 | Plant response rating, Oat, Wild (oat, wild; [6]): 0 | pest or weed control at 500 g/ha (pigweed; [7]): 0% | pest or weed control at 500 g/ha (pigweed; [8]): 0% | Pigweed plant response rating (pigweed; [3]): 0

O=C1NCC(c2ccc(F)c(F)c2)C1C(=O)Nc1cccc(F)c1F (stereo not shown) [Compound 17, N-(2,3-difluorophenyl)-4-(3,4-difluorophenyl)-2-oxo-3-pyrrolidinecarboxamide]
Corn plant response rating (crop injury, 0 = no effect, 100 = complete kill) at 1000 g/ha (corn; Zea mays, post-emergence, 240 h, Postemergence, 0 to 100 scale (0 no effect, 100 complete control)): 60% | Corn plant response rating (crop injury, 0 = no effect, 100 = complete kill) at 1000 g/ha (corn; Zea mays, pre-emergence, 240 h, Preemergence, visual rating on 0 to 100 scale (0 no effect, 100 complete control), approx. 10 days): 60% | Plant response rating, Ragweed (ragweed; [9]): 0 | Plant response rating, Ragweed (ragweed; [10]): 0 | Plant response rating, Ragweed (ragweed; [11]): 0 | Plant response rating, Ragweed (ragweed; [12]): 0 | Plant response rating, Ragweed (ragweed; [5]): 0 | Plant response rating, Ragweed (ragweed; [6]): 30 | plant injury at 1000 g/ha (wheat; [13]): 60% | plant injury at 1000 g/ha (wheat; [14]): 70% | Plant response rating, Morningglory (morningglory; [9]): 0 | Plant response rating, Morningglory (morningglory; [10]): 0 | Plant response rating, Morningglory (morningglory; [11]): 0 | Plant response rating, Morningglory (morningglory; [12]): 0 | Plant response rating, Morningglory (morningglory; [5]): 0 | Plant response rating, Wheat (wheat (winter wheat); [9]): 0 | Plant response rating, Wheat (wheat (winter wheat); [10]): 0 | Plant response rating, Wheat (wheat (winter wheat); [11]): 0 | Plant response rating, Wheat (wheat (winter wheat); [12]): 0 | Plant response rating, Wheat (wheat (winter wheat); [5]): 0 | Plant response rating, Wheat (wheat (winter wheat); [6]): 0 | Plant response rating, Oat, Wild (oat, wild; [9]): 0 | Plant response rating, Oat, Wild (oat, wild; [10]): 0 | Plant response rating, Oat, Wild (oat, wild; [11]): 0 | Plant response rating, Oat, Wild (oat, wild; [12]): 0 | Plant response rating, Oat, Wild (oat, wild; [5]): 0 | Plant response rating, Oat, Wild (oat, wild; [6]): 0 | pest or weed control at 1000 g/ha (pigweed; [13]): 40% | pest or weed control at 1000 g/ha (pigweed; [14]): 50%
